Test results reported in patent US8007994B2, “Compositions and methods of modulating cholesterol metabolism” (The Board of Regents of the University of Texas System, priority 1998, dated 2011).
“Also recorded” adds a separate entry of the source. Where two headings read alike, the source gives them in different places.

Columns and labels:
cholesterol biosynthesis = assay: Rates of sterol synthesis in vivo ([3H]water incorporation); set-up: species or system mouse; conditions: mice, 0.2% cholesterol diet, 7 days
Procedure: Male, A129 mice were fed Teklad 7001 diet supplemented with 0.2% cholesterol and vehicle or LG268 (at 3 or 30 mg/kg body weight) for 7 days ad libitum. Rates of sterol synthesis were measured in vivo as described (Jeske and Dietschy, 1980, Turley et al., 1981) based on the incorporation of [^3H]water into digitonin-precipitable sterols over one hour.

ACAT-1 mRNA = assay: Northern analysis of duodenal intestine samples, ACAT-1; assay type: in vivo, mouse; conditions: duodenum of treated mice, 10 days
Excerpt: (§1) It is known that exogenous cholesterol is taken up in the distal duodenum (and perhaps proximal jejunum) by the intestinal enterocyte, is rapidly esterified (by ACAT) and packaged into chylomicrons for transport into the lymphatic system (reviewed by Homan and Krause, 1997). Recently, caveolin has also been proposed to play a role in cholesterol trafficking in the intestine (Field et al., 1998). Disruption of any of these processes could result in diminished cholesterol absorption capacity. As LG268 is an agonist of the nuclear hormone receptor RXR, it is likely that the primary targets of this drug would be transcriptionally regulated and show a change in the steady state level of mRNA for critical target genes. Northern analyses were performed on duodenal intestine samples obtained in the experiment described in FIG. 4. Results were quantitated using a phosphoimager (Molecular Dynamics), standardized against b-actin controls, and mathematically adjusted to yield 1 unit for the vehicle-treated control group.

RXR = conditions: cited from earlier work
cholesterol absorption [1] = assay: Cholesterol absorption by the fecal isotope ratio method in hamsters; assay type: in vivo, Golden Syrian hamster; conditions: male hamsters, 0.2% cholesterol diet, 3 or 30 mg/kg body weight
Procedure: (§2) Hamsters provide a better animal model for cholesterol metabolism than mice (however, mice offer the advantage that they can be genetically manipulated, for example the LXRα−/− strain). […] Male Syrian Golden hamsters were fed Teklad 7001 diet supplemented with 0.2% cholesterol and vehicle, LG268 (providing 3 or 30 mg/kg body weight) or 2% surfomer. On day 7, they received a gavage dose of [22,23-3H]b-sitostanol (American Radiolabeled Chemicals, St. Louis, Mo.) and [4-14C]cholesterol (Amersham) for the measurement of cholesterol absorption by the fecal isotope ratio method (Turley et al., 1994). Stools were collected from the individually housed hamsters over the next 72 hours. On day 12 the animals were sacrificed and liver was removed for cholesterol determination by gas chromatography (Turley et al., 1994). […] Therefore the effects of LG268 on cholesterol homeostasis are not limited to mice, but observed in other mammalian species as well.

cholesterol absorption [2] = assay: Cholesterol absorption by the fecal isotope ratio method in mice; assay type: in vivo, mouse
Procedure: Male, A129 strain mice (LXRα+/+ and −/−) were fed Teklad 7001 powdered diet supplemented with 0.2% cholesterol 0.015% LG268 (provides 30 mg/kg body weight), vehicle, or 2% surfomer ad libitum for 10 days. On day 7, mice received a gavage dose of [22,23-3H]b-sitostanol (American Radiolabeled Chemicals, St. Louis, Mo.) and [4-14C]cholesterol (Amersham) for the measurement of cholesterol absorption by the fecal isotope ratio method (Turley et al., 1994). […] In light of the extreme potency of LG268, a dose-response analysis was performed.
(§3) Male, A129 strain mice were fed Teklad 7001 powdered diet supplemented with 0.2% cholesterol and various levels of LG268 (providing 1.4 to 30 mg/kg body weight) or vehicle ad libitum for 10 days. On day 7, mice received a gavage dose of [22,23-3H]b-sitostanol (American Radiolabeled Chemicals, St. Louis, Mo.) and [4-14C]cholesterol (Amersham) for the measurement of cholesterol absorption by the fecal isotope ratio method (Turley et al., 1994). Liver cholesterol concentration was determined as by gas chromatography.
as §3, with “cholesterol” for “cholesterol and various levels of”, “or LG721 (to provide 3” for “(providing 1.4 to 30”, “weight)” for “weight) or vehicle”

ACAT-2 mRNA = assay: Northern analysis of duodenal intestine samples, ACAT-2; assay type: in vivo, mouse; conditions: duodenum of treated mice, 10 days
Excerpt: as §1

bile acid production = assay: Bile acid pool size and fecal bile acid excretion in cholesterol-fed mice; assay type: in vivo, mouse; conditions: LXRα +/+ and −/− mice, 2% cholesterol diet, 30 mg/kg oral gavage daily, 7 days
Procedure: Female, mixed strain (LXRα+/+ and −/−) mice were fed Teklad 7001 2% cholesterol (w/w) diet ad libitum for 7 days. Each day mice received a single bolus dose of LG268 ([…] to provide 30 mg/kg body weight) or vehicle by oral gavage. Mice were killed and liver cholesterol was determined as described in FIG. 1. Small intestine (with luminal contents) and gall bladder were extracted together to determine bile acid pool size and composition as described by Schwartz et al., 1998. Stools were collected over 3 days from the individually housed mice, dried, weighed and ground. Fecal bile acid content was determined by an enzymatic method (Turley et al., 1996).

total lipid absorption = assay: Total lipid absorption determined gravimetrically in mice; assay type: in vivo, mouse
Procedure: Total lipid absorption was determined in the study described above (FIG. 4) to establish whether LG268 effects were specific to cholesterol or were affecting lipid absorption or intestinal integrity. Total lipid absorption was determined gravimetrically (Schwartz et al., 1998) by establishing lipid intake (amount of food consumed over 72 hours×dietary lipid content) and lipid output (fecal lipid content×quantity of stool collected over the same 72 hours) to calculate the fraction of lipid consumed that was absorbed. […] The gravimetric determination of lipid absorption shown in FIG. 5 confirmed these findings. The reduction in lipid absorption seen in these animals can be accounted for by the reduction in cholesterol uptake (cholesterol comprises ˜5% of the lipid in these diets and is extracted and measured as lipid in these analyses). Therefore, the effects of LG268 are specific for cholesterol absorption.

liver cholesterol [3] = assay: Liver cholesterol accumulation in cholesterol-fed LXRα wild-type and knockout mice; assay type: in vivo, mouse; conditions: 0.2% cholesterol diet, 30 mg/kg body weight in diet, 10 days
Procedure: Male, A129 strain mice (LXRα+/+ and −/−) were fed Teklad 7001 powdered diet supplemented with 0.2% cholesterol 0.015% LG268 (provides 30 mg/kg body weight), vehicle, or 2% surfomer (a surfactant polymer that inhibits cholesterol absorption, Turley et al., 1991) ad libitum for 10 days. Animals were sacrificed and a liver aliquot was saponified and extracted and the cholesterol content was determined by gas chromatography using stigmastanol as an internal standard (Turley et al., 1994). Liver cholesterol accumulation was prevented by ingestion of LG268 in both LXRα knockout and wild-type mice. The two most likely mechanisms for this effect are (1) increased cholesterol output by enhanced bile acid production and secretion and/or (2) decreased cholesterol input by diminished cholesterol absorption.
Male, A129 strain mice were fed Teklad 7001 powdered diet supplemented with 0.2% cholesterol and various levels of LG268 (providing 1.4 to 30 mg/kg body weight) or vehicle ad libitum for 10 days. […] Liver cholesterol concentration was determined as by gas chromatography.
Male, A129 strain mice were fed Teklad 7001 powdered diet supplemented with 0.2% cholesterol LG268 or LG721 (to provide 3 mg/kg body weight) ad libitum for 10 days. […] Liver cholesterol concentration was determined as by gas chromatography.

[4] = system: ATP-binding cassette protein-1 (ABC-1); assay: Northern analysis of intestinal ABC-1 expression; assay type: in vivo; conditions: mouse small intestine, oral 30 mg/kg body weight, as little as 6 hours
Procedure: The ATP-binding cassette protein-1 is a newly described membrane protein implicated in reverse cholesterol transport, in other words the efflux of cholesterol from peripheral tissues to the liver (Young and Fielding, 1999; Tall, 1998).
Male A129 strain mice were fed Teklad 7001 powdered diet supplemented with 0.2% cholesterol and 0.015% LG268, equimolar LG721 (see example 12) or vehicle at 7 pm (beginning of dark cycle). Animals were sacrificed at 1 am (6 hour time point) or 7 am (12 hr), the intestine was removed and rinsed with ice-cold phosphate buffered saline, then subdivided into 5 segments of equal length (˜8 cm each, FIG. 10A) or 3 segments (the proximal segment representing the duodenumis depicted in FIG. 10B). Intestinal mucosa was obtained from each segment and poly (A+) RNA isolated for northern analyses. Results were quantified using a phosphorimager, standardized against b-actin controls, and mathematically adjusted to yield 1 unit for the vehicle-treated control group.

caveolin mRNA = assay: Northern analysis of duodenal intestine samples, caveolin; assay type: in vivo, mouse; conditions: duodenum of treated mice, 10 days
Excerpt: as §1

liver cholesterol [5] = assay: Liver cholesterol in cholesterol-fed Golden Syrian hamsters; assay type: in vivo, Golden Syrian hamster; conditions: male hamsters, 0.2% cholesterol diet, 3 or 30 mg/kg body weight, 12 days
Procedure: as §2

Cc1cc2c(cc1C1(c3ccc(C(=O)O)cn3)CC1)C(C)(C)CCC2(C)C [LG268]
cholesterol biosynthesis (cholesterol biosynthesis; 3 or 30 mg/kg body weight): increased cholesterol biosynthesis | sterol synthesis in spleen, kidney and carcass (cholesterol biosynthesis; 3 or 30 mg/kg, dose-dependent): Increased synthesis | ACAT-1 mRNA level (ACAT-1 mRNA): No apparent change | RXR binding and activation (RXR): binds and activates RXR | RXR binding and activation (RXR; listed as LG100268): binds and activates all RXR subtypes | binding to other related nuclear receptors (RXR; selectivity): fails to exhibit binding | cholesterol absorption (cholesterol absorption [1]): inhibiting cholesterol absorption | cholesterol absorption (cholesterol absorption [2]; LXRα +/+ and −/− mice, 0.2% cholesterol diet, 30 mg/kg body weight, 10 days, 30 mg/kg): completely inhibited; also recorded: total block in cholesterol absorption | inhibition of cholesterol absorption compared with 2% surfomer (cholesterol absorption [2]; mice, LG268 0.015% of diet, dose 130-fold lower than surfomer): more effective than surfomer | lowest effective dose preventing liver cholesterol accumulation by inhibiting cholesterol absorption (cholesterol absorption [2]; wild-type mice, 0.2% cholesterol diet, doses 1.4 to 30 mg/kg, 10 days): 1.4 mg/kg body weight | ACAT-2 mRNA level (ACAT-2 mRNA): No apparent change | liver cholesterol accumulation prevented via bile acid production (bile acid pool size and excretion) (bile acid production): did not prevent the liver accumulation by increasing bile acid production | stool output (total lipid absorption; wild-type mice receiving LG268 in diet): normal | general lipid absorption (total lipid absorption; wild-type mice, 0.2% cholesterol diet, LG268 in diet, 10 days): not experiencing general lipid malabsorption or steattorhea; also recorded: unaffected | liver cholesterol accumulation (liver cholesterol [3]): prevented | ABC-1 expression [4]: greatly increased | caveolin mRNA level (caveolin mRNA): No apparent change | liver cholesterol (liver cholesterol [5]): effective in hamsters in reducing liver cholesterol
